Patent US8975245B2, “Anaesthetic formulation” (Drawbridge Pharmaceuticals Pty Ltd, priority 2010, dated 2015)

Columns and labels:
[1] = for time of continuous stirring until it went into solution: 10 mg/ml in 13% w/v sulfobutyl ether β-cyclodextrin in 0.9% saline; for dissolution at a concentration of 10 mg/ml: 13% w/v sulfobutyl ether β-cyclodextrin in 0.9% saline
rats = assay: Effect of Captisol premedication on the death rate of Althesin
[2] = SBECD7 (13% solution) premed 5.25 mls/kg 60 s before Althesin @ 16 x AD95 (52.5 mg/kg alphaxalone iv), 10 rats

Compound	time of continuous stirring until it went into solution [1] [h]	dissolution at a concentration of 10 mg/ml [1]	n did not die (rats; [2])	n died (rats; [2])	effect on mortality caused by alphaxalone as Althesin (rats; premedication 60 s before 52.5 mg/kg alphaxalone as Althesin)
C[C@]12CC[C@@H](O)C[C@@H]1CC[C@H]1[C@@H]3CC[C@H](C(=O)CO)[C@@]3(C)CC(=O)[C@@H]12 [alphadolone]	4	dissolved completely			
CC(=O)[C@H]1CC[C@H]2[C@@H]3CC[C@@H]4C[C@H](O)CC[C@]4(C)[C@H]3CC[C@]12C [pregnanolone]	4	dissolved incompletely			
(7) sulfobutyl ether β-cyclodextrin [SBECD7]			8	2	statistically and clinically significant reduction in the mortality
